Measured values reported in patent publication US5747269A, “Determination of peptide motifs on MHC molecules” (Max-Planck-Gesellschaft zur Forderung der Wissenschaften …, priority 1991, dated 1998).
Where no end group is shown, it is not given here.

How the values were obtained:
[1] = system: H-2K^d
[2] = system: K^d; settings: natural influenza epitope; cited from earlier work

Sequence | match of the K^d-eluted self peptide sequence with the K^d-restricted consensus motif [1] | K^d restriction / T cell epitope [2]
SYFPEITHI [SYFPEITHI (SEQ ID NO:2)] | matches the consensus motif | –
TYQRTRALV [TYQRTRALV (SEQ ID NO:1)] | – | natural K^d -restricted influenza epitope
